# Results as given in patent publication US20260000075A1, “HERBICIDAL MALONIC ACID MONOAMIDES AND MALONAMIDE ESTERS” (BASF SE, priority 2022, published 2026).
# Tests used:
# APESV = test: greenhouse pre-emergence herbicidal test; type: in vivo, Apera spica-venti; settings: pre-emergence method, scale from 0 to 100
# Description: (§1) The culture containers used were plastic flowerpots containing loamy sand with approximately 3.0% of humus as the substrate. The seeds of the test plants were sown separately for each species.
# (§2) For the pre-emergence treatment, the active ingredients, which had been suspended or emulsified in water, were applied directly after sowing by means of finely distributing nozzles. The containers were irrigated gently to promote germination and growth and subsequently covered with transparent plastic hoods until the test plants had rooted.
# (§3) This cover caused uniform germination of the test plants, unless this had been impaired by the active ingredients.
# (§4) Depending on the species, the test plants were kept at 10-25° C. or 20-35° C., respectively.
# (§5) The test period extended over 2 to 4 weeks. During this time, the test plants were tended, and their response to the individual treatments was evaluated.
# (§6) Evaluation was carried out using a scale from 0 to 100. 100 means no emergence of the test plants, or complete destruction of at least the aerial moieties, and 0 means no damage, or normal course of growth. A good herbicidal activity is given at values of 70 to <90 and a very good herbicidal activity is given at values of 90 to 100.
# (§7) The test plants used in the greenhouse experiments were of the following species: […]
# ECHCG = test: greenhouse pre-emergence herbicidal test; type: in vivo, Echinocloa crus-galli; settings: pre-emergence method, scale from 0 to 100
# Description: as §1, §2, §3, §4, §5, §6, §7
# SETFA = test: greenhouse pre-emergence herbicidal test; type: in vivo, Setaria faberi; settings: pre-emergence method, application rate 0.500 kg/ha, scale from 0 to 100
# Description: as §1, §2, §3, §4, §5, §6, §7
# ALOMY = test: greenhouse post-emergence herbicidal test; type: in vivo, Alopercurus myosuroides; settings: post-emergence method, scale from 0 to 100
# Description: as §1
# (§8) For the post-emergence treatment, the test plants were first grown to a height of 3 to 15 cm, depending on the plant habit, and only then treated with the active ingredients which had been suspended or emulsified in water. For this purpose, the test plants were either sown directly and grown in the same containers, or they were first grown separately as seedlings and transplanted into the test containers a few days prior to treatment.
# as §4, §5, §6, §7
# SETVI [1] = test: greenhouse pre-emergence herbicidal test; type: in vivo, Setaria viridis; settings: pre-emergence method, application rate 0.500 kg/ha, scale from 0 to 100
# Description: as §1, §2, §3, §4, §5, §6, §7
# LOLMU = test: greenhouse pre-emergence herbicidal test; type: in vivo, Lolium multiflorum; settings: pre-emergence method, application rate 1.000 kg/ha, scale from 0 to 100
# Description: as §1, §2, §3, §4, §5, §6, §7
# DIGSA = test: greenhouse pre-emergence herbicidal test; type: in vivo, Digitaria sanguinalis; settings: pre-emergence method, application rate 1.000 kg/ha, scale from 0 to 100
# Description: as §1, §2, §3, §4, §5, §6, §7
# AMARE [2] = test: greenhouse post-emergence herbicidal test; type: in vivo, Amaranthus retroflexus; settings: post-emergence method, application rate 1.000 kg/ha, scale from 0 to 100
# Description: as §1, §8, §4, §5, §6, §7
# AVEFA = test: greenhouse post-emergence herbicidal test; type: in vivo, Avena fatua; settings: post-emergence method, application rate 1.000 kg/ha, scale from 0 to 100
# Description: as §1, §8, §4, §5, §6, §7
# AMARE [3] = test: greenhouse pre-emergence herbicidal test; type: in vivo, Amaranthus retroflexus; settings: pre-emergence method, scale from 0 to 100
# Description: as §1, §2, §3, §4, §5, §6, §7
# SETVI [4] = test: greenhouse post-emergence herbicidal test; type: in vivo, Setaria viridis; settings: post-emergence method, application rate 0.250 kg/ha, scale from 0 to 100
# Description: as §1, §8, §4, §5, §6, §7
compound,measurement,setting,value
"5-[(3,5-difluorophenyl)carbamoyl]-hydrofuran-5-carboxylic acid [compound 1.7]",herbicidal activity against APESV,APESV; application rate 0.500 kg/ha,very good (a very good herbicidal activity is given at values of 90 to 100)
same,herbicidal activity against ECHCG,ECHCG; application rate 0.500 kg/ha,good (A good herbicidal activity is given at values of 70 to <90)
same,herbicidal activity against SETFA,SETFA,good (A good herbicidal activity is given at values of 70 to <90)
same,herbicidal activity against ALOMY,ALOMY; application rate 0.500 kg/ha,very good (a very good herbicidal activity is given at values of 90 to 100)
CSCCOC(=O)C1(C(=O)Nc2cc(F)cc(F)c2)C=CCO1 (stereo not shown) [compound 1.9],herbicidal activity against SETVI,SETVI [1],very good (a very good herbicidal activity is given at values of 90 to 100)
"O=C(O)C1(C(=O)Nc2cc(F)cc(F)c2)CC=CO1 (stereo not shown) [compound 1.26, 2-[(3,5-difluorophenyl)carbamoyl]-3H-furan-2-carboxylate]",herbicidal activity against LOLMU,LOLMU,very good (a very good herbicidal activity is given at values of 90 to 100)
same,herbicidal activity against DIGSA,DIGSA,very good (a very good herbicidal activity is given at values of 90 to 100)
same,herbicidal activity against AMARE,AMARE [2],good (A good herbicidal activity is given at values of 70 to <90)
same,herbicidal activity against AVEFA,AVEFA,very good (a very good herbicidal activity is given at values of 90 to 100)
CS(=O)(=O)CCOC(=O)C1(C(=O)Nc2cc(F)cc(F)c2)CCO1 (stereo not shown) [compound 11.8],herbicidal activity against AMARE,AMARE [3]; application rate 0.250 kg/ha,good (A good herbicidal activity is given at values of 70 to <90)
CC1=CCOC1(C(=O)O)C(=O)Nc1cc(Cl)cc(Cl)c1 (stereo not shown) [compound 1.6],herbicidal activity against AMARE,AMARE [3]; application rate 0.125 kg/ha,good (A good herbicidal activity is given at values of 70 to <90)
same,herbicidal activity against APESV,APESV; application rate 0.125 kg/ha,good (A good herbicidal activity is given at values of 70 to <90)
O=C(O)C1(C(=O)Nc2cc(F)cc(F)c2)CCO1 (stereo not shown) [compound 11.5],herbicidal activity against SETVI,SETVI [4],very good (a very good herbicidal activity is given at values of 90 to 100)
"CCOC(=O)C1(C(=O)Nc2cc(F)cc(F)c2)CC=CO1 (stereo not shown) [compound 1.25, ethyl 2-[(3,5-difluorophenyl)carbamoyl]-3H-furan-2-carboxylate]",herbicidal activity against ALOMY,ALOMY; application rate 0.250 kg/ha,very good (a very good herbicidal activity is given at values of 90 to 100)
"CCOC(=O)C1(C(=O)Nc2cc(Cl)cc(Cl)c2)CCO1 (stereo not shown) [compound 11.1, ethyl 2-[(3,5-dichlorophenyl)carbamoyl]oxetane-2-carboxylate]",herbicidal activity against APESV,APESV; application rate 1.000 kg/ha,good (A good herbicidal activity is given at values of 70 to <90)
same,herbicidal activity against ECHCG,ECHCG; application rate 1.000 kg/ha,good (A good herbicidal activity is given at values of 70 to <90)
